Measured values taken from article PMC9260974 (BMC Pharmacology & Toxicology, 2022).
“And” between values parts separate entries of the source, which are not always exact repeats. Equal entries are not always repeated. Where two headings read alike, the source gives them in different places.

What was measured:
[1] = human, in vivo
Protocol: (§1) All eligible subjects were assigned according to the random table generated by SAS 9.4 and took the test (T) and reference(R) drugs respectively with 240 ml water after an overnight fast of at least 10 h (fasting study) or after the high-fat breakfast within half an hour before dosing (fed study). […] Subjects were forbidden to drink water within 1 h before and after taking the drug, and the lunch and dinner were provided at 4 h and 8 h respectively post-drug administration. No other food and beverage intake was permitted except the provided diets. […] 4 ml venous blood samples were collected before drug administration and at 1,2,3,4,5,6,7,8,9,10,11,12,13,24,36,48,72,96,144,168 h after administration. The samples were centrifuged at 1700gear per minute for 10 min at 4℃ to separate the plasma, which was divided into two aliquots (drug monitoring at least 800ul and backup) and stored at - 80℃until analysis.
(§2) The lower limit of quantification (LLOQ) was 0.500 ng/mL and the assay dynamic range was 0.500-100 ng/mL.
(§3) Under multiple reaction monitoring, LC–MS/MS system adopts positive ionization mode.
(§4) Data collection and analysis was performed with Analyst 1.6.3 software (Sciex, Canada) and Watson LIMS (Thermo, USA). Calibration curves were constructed using linear regression equation obtained by the weighted (W = 1/X2) least square method fitting for both analytes. Quantitation of quality control and clinical samples were also performed by the Analyst software using the same mathematical algorithm as that used in the calibration of standard curves.
(§5) For the purpose of bioequivalence analysis, the maximum observed concentration (Cmax), the area under the plasma concentration–time curve from time 0 to the last measured time point (AUC0-t), and the area under the plasma concentration–time curve from time 0 to infinity (AUC0-∞) were considered as primary PK parameters. The secondary PK parameters were the observed time to Cmax (Tmax) and the apparent terminal half-life (T1/2). Cmax and Tmax were the factually measured data and AUC0-t was calculated using the linear and logarithmic trapezoidal methods. AUC0-∞ was calculated according to the following formula: AUC0-∞ = AUC0-t + Clast/λz (Clast is the last measurable concentration and is the first order rate constant of terminal elimination determined from a linear regression line after logarithmic transformation at the end of concentration time curve. λz is the slope calculated by linear regression after logarithmic conversion at the end of the concentration–time curve). T1/2 was calculated to be ln2/λ.
(§6) Statistical analysis was performed by SAS 9.4. Demographic characteristics, safety parameters and pharmacokinetic data were summarized using descriptive statistics, the results were presented as the mean ± SD and the differences between groups were determined by two one-sided tests. […] AUC and Cmax were logarithmically transformed and analyzed by linear mixed effect model. Sequence, period and formulation were fixed effects, and subject within sequence was included as a random effect. Analysis of variance (ANOVA) of cross-over design was performed on the log-transformed variables. […] Bioequivalence was assessed separately in both the fasting and fed groups.

blood pressure = settings: after oral administration; cited from earlier work
clinical = settings: human, plasma, po
Protocol: as §1, §2, §3, §4, §5, §6

[2] = lisinopril; cited from earlier work
[3] = Single-dose two-period crossover bioequivalence study, fed (high-fat breakfast): plasma pharmacokinetics of lisinopril and amlodipine (LC-MS/MS, NCA); settings: for concentration at 3 h / concentration at 10 h / concentration at 6 h / concentration at 5 h / concentration at 7 h / concentration at 8 h / concentration at 11 h / concentration at 12 h / concentration at 0 h / concentration at 1 h / concentration at 2 h / concentration at 4 h / concentration at 9 h / concentration at 13 h / concentration at 24 h / concentration at 36 h / concentration at 48 h / concentration at 72 h / concentration at 96 h / concentration at 144 h / concentration at 168 h: human, po, Plasma concentration of lisinopril; for concentration at 3 h: nominal time 3 h; for concentration at 3 h / concentration at 10 h / concentration at 6 h / concentration at 5 h / concentration at 7 h / concentration at 8 h / concentration at 11 h / concentration at 12 h / concentration at 0 h / concentration at 1 h / concentration at 2 h / concentration at 4 h / concentration at 9 h / concentration at 13 h / concentration at 24 h / concentration at 36 h / concentration at 48 h / concentration at 72 h / concentration at 96 h / concentration at 144 h / concentration at 168 h / Plasma concentration of lisinopril: reference (R) tablets; for concentration at 10 h: nominal time 10 h; for concentration at 6 h: nominal time 6 h; for concentration at 5 h: nominal time 5 h; for concentration at 7 h: nominal time 7 h; for concentration at 11 h: nominal time 11 h; for concentration at 12 h: nominal time 12 h; for concentration at 0 h: nominal time 0 h; for concentration at 2 h: nominal time 2 h; for concentration at 4 h: nominal time 4 h; for concentration at 9 h: nominal time 9 h; for concentration at 13 h: nominal time 13 h; for concentration at 24 h: nominal time 24 h; for concentration at 36 h: nominal time 36 h; for concentration at 48 h: nominal time 48 h; for concentration at 72 h: nominal time 72 h; for concentration at 96 h: nominal time 96 h; for Plasma concentration of lisinopril: oral, listed as LSN;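 on Plasma concentration of lisinopril: single tablet dose 10 mg/5 mg fixed combination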
Protocol: as §1, §2, §3, §4, §5, §6

[4] = plasma, Max, maximum among subjects
[5] = plasma, Mean, mean of 37 subjects
[6] = plasma, Min, minimum among subjects
[7] = lisinopril, intra-subject coefficient of variation

In the case of NCCCC[C@H](N[C@@H](CCc1ccccc1)C(=O)O)C(=O)N1CCC[C@H]1C(=O)O [lisinopril], the “Intra-CV (%) of AUC0-t” value [1] is reported as 19.3%, the “Intra-CV (%) of AUC0-∞” value [1] is reported as 17.0% and the “Intra-CV (%) of Cmax” value [1] is reported as 24.3%. The “Time to appearance of antihypertensive effect” value (blood pressure) was at most 1 h, the “Time to peak antihypertensive effect” value (blood pressure) was “about 6 h” and the concentration at 0 h (clinical) was 0.517 ng/mL. For the same molecule, the “Decrease of AUC0-24 by concomitant EGCG-concentrated green tea extract” value [2] was 69%, the “Decrease of AUC0-∞ by concomitant EGCG-concentrated green tea extract” value [2] was 67% and the “Decrease of Cmax by concomitant EGCG-concentrated green tea extract” value [2] was 71%. The “Mean fecal recovery of intact drug” value [2] was 69%, the concentration at 3 h ([3]; in vivo, Max, maximum among subjects) was 22.4 ng/mL and the concentration at 10 h ([3]; in vivo, Mean, mean of 36 subjects) was 12.9 ng/mL. The concentration at 6 h ([3]; in vivo, Mean, mean of 37 subjects) was 13.3 ng/mL, the concentration at 3 h ([3]; in vivo, individual subjects) was 22.4 ng/mL and the concentration at 5 h ([3]; in vivo, individual subjects) was 12.9 ng/mL. For the same molecule, the concentration at 6 h ([3]; in vivo, individual subjects) was 22.4 ng/mL, the concentration at 7 h ([3]; in vivo, individual subjects) was 22.4 ng/mL and the concentration at 8 h ([3]; in vivo, individual subjects, nominal time 8 h) was 22.4 ng/mL. It also gave a concentration at 11 h ([3]; in vivo, individual subjects) of 12.9 ng/mL, a concentration at 12 h ([3]; in vivo, individual subjects) of 13.3 ng/mL and a concentration at 0 h [3, 4] of 0.532 ng/mL. It also gave a concentration at 1 h ([3]; plasma, Max, maximum among subjects, nominal time 1 h) of 3.22 ng/mL, a concentration at 2 h [3, 4] of 12 ng/mL and a concentration at 4 h [3, 4] of 29.2 ng/mL. It also gave a concentration at 5 h [3, 4] of 29.7 ng/mL, a concentration at 6 h [3, 4] of 29.5 ng/mL and a concentration at 7 h [3, 4] of 29.8 ng/mL. The concentration at 8 h ([3]; plasma, Max, maximum among subjects, nominal time 8 h) was 27.4 ng/mL, the concentration at 9 h [3, 4] was 27.1 ng/mL and the concentration at 10 h [3, 4] was 24.1 ng/mL. The concentration at 11 h [3, 4] was 21.9 ng/mL, the concentration at 12 h [3, 4] was 20.8 ng/mL and the concentration at 13 h [3, 4] was 19 ng/mL. The concentration at 24 h [3, 4] was 8.44 ng/mL, the concentration at 36 h [3, 4] was 3.64 ng/mL and the concentration at 48 h [3, 4] was 3.23 ng/mL. It also gave a concentration at 72 h [3, 4] of 2.87 ng/mL, a concentration at 96 h [3, 4] of 2.72 ng/mL and a concentration at 144 h ([3]; plasma, Max, maximum among subjects, nominal time 144 h) of 2.07 ng/mL. The concentration at 168 h ([3]; plasma, Max, maximum among subjects, nominal time 168 h) was 1.66 ng/mL, the concentration at 0 h [3, 5] was 0.0284 ng/mL and the concentration at 1 h ([3]; plasma, Mean, mean of 37 subjects, nominal time 1 h) was 0.795 ng/mL. The concentration at 2 h [3, 5] was 2.85 ng/mL, the concentration at 3 h [3, 5] was 5.92 ng/mL and the concentration at 4 h [3, 5] was 9.3 ng/mL. For the same molecule, the concentration at 5 h [3, 5] was 11.9 ng/mL, the concentration at 7 h [3, 5] was 13.9 ng/mL and the concentration at 8 h ([3]; plasma, Mean, mean of 37 subjects, nominal time 8 h) was 14 ng/mL. The concentration at 9 h [3, 5] was 13.5 ng/mL, the concentration at 11 h [3, 5] was 12 ng/mL and the concentration at 12 h [3, 5] was 10.8 ng/mL. It also gave a concentration at 13 h [3, 5] of 9.81 ng/mL, a concentration at 24 h [3, 5] of 4.32 ng/mL and a concentration at 36 h [3, 5] of 2.32 ng/mL. For the same molecule, the concentration at 48 h [3, 5] was 1.88 ng/mL, the concentration at 72 h [3, 5] was 1.46 ng/mL and the concentration at 96 h [3, 5] was 1.21 ng/mL. For the same molecule, the concentration at 144 h ([3]; plasma, Mean, mean of 37 subjects, nominal time 144 h) was 0.741 ng/mL, the concentration at 168 h ([3]; plasma, Mean, mean of 37 subjects, nominal time 168 h) was 0.639 ng/mL and the concentration at 0 h [3, 6] was 0 ng/mL. The concentration at 1 h ([3]; plasma, Min, minimum among subjects, nominal time 1 h) was 0 ng/mL, the concentration at 2 h [3, 6] was 0 ng/mL and the concentration at 3 h [3, 6] was 0.89 ng/mL. For the same molecule, the concentration at 4 h [3, 6] was 1.37 ng/mL, the concentration at 5 h [3, 6] was 2.12 ng/mL and the concentration at 6 h [3, 6] was 3.02 ng/mL. The concentration at 7 h [3, 6] was 3.34 ng/mL, the concentration at 8 h ([3]; plasma, Min, minimum among subjects, nominal time 8 h) was 3.75 ng/mL and the concentration at 9 h [3, 6] was 4.2 ng/mL. It also gave a concentration at 10 h [3, 6] of 4.09 ng/mL, a concentration at 11 h [3, 6] of 3.97 ng/mL and a concentration at 12 h [3, 6] of 3.57 ng/mL. The concentration at 13 h [3, 6] was 3.73 ng/mL, the concentration at 24 h [3, 6] was 2.31 ng/mL and the concentration at 36 h [3, 6] was 1.27 ng/mL. It also gave a concentration at 48 h [3, 6] of 0.976 ng/mL, a concentration at 72 h [3, 6] of 0.736 ng/mL and a concentration at 96 h [3, 6] of 0.564 ng/mL. For the same molecule, the concentration at 144 h ([3]; plasma, Min, minimum among subjects, nominal time 144 h) was 0 ng/mL, the concentration at 168 h ([3]; plasma, Min, minimum among subjects, nominal time 168 h) was 0 ng/mL and the “Plasma concentration of lisinopril” value ([3]; individual subjects, nominal time 1 h) was 0.899 ng/mL and 0.567 ng/mL and 0.719 ng/mL and 1.48 ng/mL and 3.22 ng/mL and 1.13 ng/mL and 0.941 ng/mL and 3.14 ng/mL and 0.842 ng/mL and 1.25 ng/mL and 0.826 ng/mL and 0.793 ng/mL and 1.55 ng/mL and 0.556 ng/mL and 0.744 ng/mL and 1.26 ng/mL and 1.43 ng/mL and 0.747 ng/mL and 1.81 ng/mL and 0.710 ng/mL and 0.799 ng/mL and 0.831 ng/mL and 2.32 ng/mL. For the same molecule, the “Plasma concentration of lisinopril” value ([3]; individual subjects, nominal time 8 h) was 13.3 ng/mL, the “Plasma concentration of lisinopril” value ([3]; individual subjects, nominal time 144 h) was 1.05 ng/mL and 0.866 ng/mL and 2.07 ng/mL and 0.911 ng/mL and 0.569 ng/mL and 0.775 ng/mL and 0.691 ng/mL and 0.777 ng/mL and 0.834 ng/mL and 0.868 ng/mL and 0.514 ng/mL and 0.885 ng/mL and 0.919 ng/mL and 1.07 ng/mL and 1.00 ng/mL and 1.32 ng/mL and 0.715 ng/mL and 0.954 ng/mL and 1.83 ng/mL and 0.661 ng/mL and 0.869 ng/mL and 0.760 ng/mL and 0.582 ng/mL and 0.969 ng/mL and 0.992 ng/mL and 0.736 ng/mL and 0.576 ng/mL and 1.56 ng/mL and 1.10 ng/mL and the “Plasma concentration of lisinopril” value ([3]; individual subjects, nominal time 168 h) was 0.904 ng/mL and 0.689 ng/mL and 1.66 ng/mL and 0.780 ng/mL and 0.534 ng/mL and 0.708 ng/mL and 0.504 ng/mL and 0.629 ng/mL and 0.750 ng/mL and 0.711 ng/mL and 0.787 ng/mL and 0.832 ng/mL and 0.987 ng/mL and 0.890 ng/mL and 1.20 ng/mL and 0.696 ng/mL and 0.773 ng/mL and 0.528 ng/mL and 1.38 ng/mL and 0.522 ng/mL and 0.761 ng/mL and 0.659 ng/mL and 0.502 ng/mL and 0.849 ng/mL and 0.785 ng/mL and 0.620 ng/mL and 0.572 ng/mL and 1.04 ng/mL. The “Intra-CV (%) of AUC0-t” value [3, 7] was 13.3%, the “Intra-CV (%) of AUC0-∞” value [3, 7] was 12.9% and the “Intra-CV (%) of Cmax” value [3, 7] was 22.4%.
